Where two headings read alike, the source gives them in different places.
Tests used:
Adenosine A2A Receptor = Adenosine A2A Receptor (Homo sapiens (Human), UniProt P29274); assay: A2A Tag-lite HTRF Assay; type: binding; conditions: Tag-lite A2A labeled cells, fluorescent ligand 12.5 nM; read-out: A2A_Ki
Protocol: Test compounds were first serially diluted in DMSO and 100 nl added to the plate wells before the addition of other reaction components. The final concentration of DMSO was 1%. Tag-lite® Adenosine A2A labeled cells (CisBio C1TT1A2A) were diluted 1:5 into Tag-lite buffer (CisBio LABMED) and spun 1200 g for 5 mins.

[1] = molecular target: human adenosine A2B receptor (Homo sapiens (Human), UniProt P29275); assay: Adenosine A2B Receptor cyclic AMP GS Assay; type: cell-based
Protocol: Stably transfected HEK-293 cells expressing the human adenosine A2B receptor (Perkin Elmer) were maintained in MEM culture medium with 10% FBS and 100 μg/ml Geneticin (Life Technologies). 18 to 24 hours prior to assay, geneticin was removed from culture. The cisbio cAMP-GS Dynamic kit utilizing the FRET (Fluorescence Resonance Energy Transfer) technology was used to measure cAMP accumulation in the cells. Compounds of the present disclosure at an appropriate concentration were mixed with 10000 cells/well in white 96 well half area plates (Perkin Elmer) for 30 min at RT gently shaking. […] Detection reagents, d2-labeled cAMP (acceptor) and anti-cAMP cryptate (donor) were added to each well for 60 min at RT gently shaking.

B16 melanoma = assay: In vivo efficacy study, B16 syngeneic melanoma model; set-up: species or system mouse; conditions: Compound 9 10 mg/kg BID combined with anti-PD-L1
[2] = test system: primary T cells co-cultured with CHO-PD-L1 cells; conditions: 2 μM NECA
Protocol: In vitro the CHO-PD-L1 co-culture assay, T cells were treated in the presence of 20 CHO-PD-L1 cells with PD-1 antibody, and using 5′-N-ethylcarboxamide adenosine (NECA), an adenosine-mimicking reagent, to activate adenosine signaling.
Day 0, plate 10,000 CHO PDL1+ cells in Plate 96 Tissue Culture Flat Bottom plate in 100 ul of CHO Media without antibiotics. On day 1, T Cells were thawed and resuspended in T cell media at 1×10^6 cells/ml. Media was removed from the CHO PDL1+ cells plates and 130 ul of T cell media was added. T cell media at 198 ul was added onto the compound plates at 2 ul, or −1:100 dilution and then re-suspended. 20 ul of compounds from the compound plates were added onto the CHO cell plates at a final dilution of compounds at 1:1000. 50 ul of T cells (50,000 cells) were added onto the plates with CHO cells to make a total of 200 ul volume and incubation was carried out at 37° C. for 72 hrs. After 3 days in culture, the supernatant was collected for an hIFNg and hIL2 cytokine assay run using ProCartaplex 2 plex kits (Life Technologies Cat #PPX-02) for hIFNg and hIL2 (Manufacturer's Protocol). The cytokine assay using ProCartaplex kits are run on a Flex Map 3D Luminex multiplexing platform.

[3] = test system: CT-26 murine colon carcinoma hosted in NSG mice; assay: In vivo efficacy study, CT-26 NSG xenograft model; set-up: species or system mouse; conditions: 10 mg/kg BID, CT-26 in NSG mice lacking T and NK cells
[4] = test system: PBMC from healthy donors stimulated by CD3 antibody; assay: In vitro Mixed Lineage Reaction assay (MLR); type: cell-based; conditions: for effect of combination with atezolizumab: PBMC stimulated with CD3 antibody, FIGS. 2A-2D; for IFNγ production: combined with anti-PD-L1 antibody atezolizumab, 1 μM NECA, CD3 antibody, 4 days
Protocol: On day 0, 10,000 PBMCs from a healthy donor was co-cultured with 10,000 γ-radiated PBMCs from another healthy donor. […] Cells were incubated at 37° C. for 4 days. IFN-γ in the supernatant of each well was measured by a HTRF kit (Cisbio, 62[…]) and the fluorescent signal was detected on a Pherastar FS plate reader (BMG Labtech) on day 4.

[5] = HEK-293 cells, agonist NECA 12 nM, read-out: A2B_cAMP_EC50

Chain of human adenosine A2B receptor (P29275 whole entry): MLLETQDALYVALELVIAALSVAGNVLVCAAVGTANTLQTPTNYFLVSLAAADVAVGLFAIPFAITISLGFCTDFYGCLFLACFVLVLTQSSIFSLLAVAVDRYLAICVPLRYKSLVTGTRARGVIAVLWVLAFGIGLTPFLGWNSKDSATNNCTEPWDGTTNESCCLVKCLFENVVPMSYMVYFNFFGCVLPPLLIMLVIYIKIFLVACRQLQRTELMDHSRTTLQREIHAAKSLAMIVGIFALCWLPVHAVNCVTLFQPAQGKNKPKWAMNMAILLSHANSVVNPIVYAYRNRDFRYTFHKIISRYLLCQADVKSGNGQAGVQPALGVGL
Chain of Adenosine A2A Receptor (P29274 whole entry): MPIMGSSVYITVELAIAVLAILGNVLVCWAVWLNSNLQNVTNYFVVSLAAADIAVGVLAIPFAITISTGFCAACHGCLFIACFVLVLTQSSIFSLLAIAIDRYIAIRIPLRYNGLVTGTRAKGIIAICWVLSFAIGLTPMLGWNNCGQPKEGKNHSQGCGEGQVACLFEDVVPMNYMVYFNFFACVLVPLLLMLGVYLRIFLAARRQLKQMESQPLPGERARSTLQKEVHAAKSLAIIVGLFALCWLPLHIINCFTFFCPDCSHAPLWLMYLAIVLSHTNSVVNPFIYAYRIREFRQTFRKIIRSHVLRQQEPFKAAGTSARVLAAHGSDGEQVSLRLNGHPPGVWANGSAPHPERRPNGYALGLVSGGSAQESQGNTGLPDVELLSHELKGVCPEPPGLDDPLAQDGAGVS

Row | Structure (SMILES) | Ki (Adenosine A2A Receptor) [µM] | EC50 [1, 5] [µM] | further results
1 | N#Cc1cccc(-c2cc3nc(C(O)c4ccccc4)nn3c(N)n2)c1 (stereo not drawn) [Compound 5, 3-(5-Amino-2-(hydroxy(phenyl)methyl)-[1,2,4]triazolo[1,5-c]pyrimidin-7-yl)benzonitrile] | < 0.01 | – | –
2 | N#Cc1cccc(-c2nc(N)n3nc(C(O)c4c(F)cccc4F)nc3c2-c2ccncn2)c1 (stereo not drawn) [Compound 2, 3-(5-Amino-2-((2,6-difluorophenyl)(hydroxy)methyl)-8-(pyrimidin-4-yl)-[1,2,4]triazolo[1,5-c]pyrimidin-7-yl)benzonitrile] | < 0.01 | < 0.01 | –
3 | Cn1nccc1-c1c(-c2cccc(C#N)c2F)nc(N)c2nn(Cc3ccccn3)nc12 [Compound 16, 3-(4-amino-7-(1-methyl-1H-pyrazol-5-yl)-2-(pyridin-2-ylmethyl)-2H-[1,2,3]triazolo[4,5-c]pyridin-6-yl)-2-fluorobenzonitrile] | < 0.01 | < 0.01 | –
4 | CN1CCC(NCc2cccc(F)c2C(O)c2nc3cc(-c4cccc(C#N)c4F)nc(N)n3n2)C1=O (stereo not drawn) [Compound 8, 3-(5-Amino-2-((2-fluoro-6-(((1-methyl-2-oxopyrrolidin-3-yl)amino)methyl)phenyl)(hydroxy)methyl)-[1,2,4]triazolo[1,5-c]pyrimidin-7-yl)-2-fluorobenzonitrile] | < 0.01 | – | –
5 | Cc1cccnc1COc1nc2c(-c3ccncn3)c(-c3cccc(C#N)c3)nc(N)n2n1 [Compound 4, 3-(5-Amino-2-((3-methylpyridin-2-yl)methoxy)-8-(pyrimidin-4-yl)-[1,2,4]triazolo[1,5-c]pyrimidin-7-yl)benzonitrile] | < 0.01 | – | –
6 | N#Cc1cccc(-c2cc3nc(C(O)c4c(F)cccc4F)nn3c(N)n2)c1F (stereo not drawn) [Compound 6, 3-(5-Amino-2-((2,6-difluorophenyl)(hydroxy)methyl)-[1,2,4]triazolo[1,5-c]pyrimidin-7-yl)-2-fluorobenzonitrile] | < 0.01 | – | –
7 | N#Cc1cccc(-c2nc(N)n3nc(Cn4nnc(-c5ccccn5)n4)nc3c2-c2ccncn2)c1 [Compound 3] | < 0.01 | < 0.01 | –
8 | CCCCCn1c2cc(-c3cnn(Cc4cncc(Cl)c4)c3)[nH]c2c(=O)n2c(C)nnc12 [Compound 17, 7-(1-((5-Chloropyridin-3-yl)methyl)-1H-pyrazol-4-yl)-3-methyl-9-pentyl-6,9-dihydro-5H-pyrrolo[3,2-d][1,2,4]triazolo[4,3-a]pyrimidin-5-one] | < 0.01 | – | –
9 | N#Cc1cccc(-c2nc(N)n3nc(C(O)c4c(F)cccc4F)nc3c2C#N)c1F (stereo not drawn) [Compound 7, 5-Amino-7-(3-cyano-2-fluorophenyl)-2-((2,6-difluorophenyl)(hydroxy)methyl)-[1,2,4]triazolo[1,5-c]pyrimidine-8-carbonitrile] | < 0.01 | – | –
10 | N#Cc1cccc(-c2nc(N)n3nc(Cc4ccccn4)nc3c2-c2ccncn2)c1 [Compound 1, 3-(5-Amino-2-(pyridin-2-ylmethyl)-8-(pyrimidin-4-yl)-[1,2,4]triazolo[1,5-c]pyrimidin-7-yl)benzonitrile] | < 0.01 | – | –
11 | N#Cc1cccc(-c2nc(N)c3nn(Cc4ncccc4F)nc3c2-c2ccncc2)c1 [Compound 15, 3-(4-amino-2-((3-fluoropyridin-2-yl)methyl)-7-(pyridin-4-yl)-2H-[1,2,3]triazolo[4,5-c]pyridin-6-yl)benzonitrile] | < 0.01 | < 0.01 | –
12 | Cc1cc(-c2c(-c3cccc(C#N)c3)nc(N)c3nc(C(O)c4c(F)cccc4F)nn23)cc(C)n1 (single isomer, unassigned) [Compound 12, 3-(8-amino-2-((2,6-difluorophenyl)(hydroxy)methyl)-5-(2,6-dimethylpyridin-4-yl)-[1,2,4]triazolo[1,5-a]pyrazin-6-yl)benzonitrile] | < 0.01 | – | EC50 [1]: 0.01 to 0.1 µM
13 | CCCCCn1c2cc(-c3cnn(Cc4cnc5ccsc5c4)c3)[nH]c2c(=O)n2c(C)nnc12 [Compound 19, 3-Methyl-9-pentyl-7-(1-(thieno[3,2-b]pyridin-6-ylmethyl)-1H-pyrazol-4-yl)-6,9-dihydro-5H-pyrrolo[3,2-d][1,2,4]triazolo[4,3-a]pyrimidin-5-one] | < 0.01 | – | –
14 | Cn1nc(-c2c(-c3cccc(C#N)c3)nc(N)c3nc(Cc4ccccn4)nn23)ccc1=O [Compound 9, 3-(8-Amino-5-(1-methyl-6-oxo-1,6-dihydropyridazin-3-yl)-2-(pyridin-2-ylmethyl)-[1,2,4]triazolo[1,5-a]pyrazin-6-yl)benzonitrile] | < 0.01 | – | tumor growth inhibition (B16 melanoma): 54%; effect of combination with pembrolizumab ([2]; FIG. 1A): synergistic effect; effect of combination with Antibody X ([2]; FIG. 1B): synergistic effect; effect of combination with Compound Y ([2]; FIG. 1C): synergistic effect; single agent efficacy [3]: no single agent efficacy; effect of combination with atezolizumab [4]: synergistic effect; IFNγ production [4]: increase IFNγ production significantly
15 | N#Cc1cccc(-c2nc(N)c3nn(Cc4ncccc4F)nc3c2-c2ccncn2)c1 [Compound 14, 3-(4-amino-2-((3-fluoropyridin-2-yl)methyl)-7-(pyrimidin-4-yl)-2H-[1,2,3]triazolo[4,5-c]pyridin-6-yl)benzonitrile] | < 0.01 | < 0.01 | –
16 | CCCCCn1c2cc(-c3cnn(Cc4ccc5c(c4)CCN(C(=O)CN(C)C)C5)c3)[nH]c2c(=O)n2c(C)nnc12 [Compound 20, 7-(1-((2-(2-(Dimethylamino)acetyl)-1,2,3,4-tetrahydroisoquinolin-6-yl)methyl)-1H-pyrazol-4-yl)-3-methyl-9-pentyl-6,9-dihydro-5H-pyrrolo[3,2-d][1,2,4]triazolo[4,3-a]pyrimidin-5-one] | < 0.01 | – | –
17 | N#Cc1cccc(-c2nc(N)n3nc(Cn4nnc(-c5ccccn5)n4)nc3c2-c2ccncn2)c1 [Compound 3A, 3-(5-amino-2-((5-(pyridin-2-yl)-2H-tetrazol-2-yl)methyl)-8-(pyrimidin-4-yl)-[1,2,4]triazolo[1,5-c]pyrimidin-7-yl)benzonitrile] | – | – | effect of combination with atezolizumab [4]: synergistic effect; IFNγ production [4]: increase IFNγ production significantly
18 | N#Cc1cccc(-c2nc(N)c3nn(Cc4ccccn4)nc3c2-c2ccncn2)c1 [Compound 13, 3-(4-amino-2-(pyridin-2-ylmethyl)-7-(pyrimidin-4-yl)-2H-[1,2,3]triazolo[4,5-c]pyridin-6-yl)benzonitrile] | < 0.01 | < 0.01 | –
19 | N#Cc1cccc(-c2nc(N)c3nc(C(O)c4c(F)cccc4F)nn3c2-c2ccncn2)c1 (single isomer, unassigned) [Compound 10, 3-(8-Amino-2-((2,6-difluorophenyl)(hydroxy)methyl)-5-(pyrimidin-4-yl)-[1,2,4]triazolo[1,5-a]pyrazin-6-yl)benzonitrile] | < 0.01 | – | EC50 [1]: < 0.01 µM
20 | N#Cc1cccc(-c2nc(N)n3nc(Cn4nnc(-n5cccn5)n4)nc3c2-c2ccncn2)c1 [Compound 21] | < 0.01 | < 0.01 | –
21 | CCCCCn1c2cc(-c3cnn(Cc4cncc(C)c4)c3)[nH]c2c(=O)n2c(C)nnc12 [Compound 18, 3-Methyl-7-(1-((5-methylpyridin-3-yl)methyl)-1H-pyrazol-4-yl)-9-pentyl-6,9-dihydro-5H-pyrrolo[3,2-d][1,2,4]triazolo[4,3-a]pyrimidin-5-one] | < 0.01 | – | –
22 | Cc1ncoc1-c1c(-c2cccc(C#N)c2)nc(N)c2nc(C(N)c3c(F)cccc3F)nn12 (stereo not drawn) [Compound 11, 3-(8-amino-2-(amino(2,6-difluorophenyl)methyl)-5-(4-methyloxazol-5-yl)-[1,2,4]triazolo[1,5-a]pyrazin-6-yl)benzonitrile] | < 0.01 | – | –

— patent US20250041310A1, “Combination Therapy Comprising A2A/A2B and PD-1/PD-L1 Inhibitors” (Incyte Corporation, priority 2020, published 2025)
